Laboratory results reported in patent publication US8309581B2, “Benzimidazole derivatives” (Hoffmann-La Roche Inc., priority 2009, dated 2012).

Target: T1, FXR ligand binding domain (Homo sapiens, UniProt Q96RI1)
T1 construct: made in house; host or cells: E. coli BL21 (pLysS)
T1 sequence (Q96RI1 193-472 isoform Q96RI1-2): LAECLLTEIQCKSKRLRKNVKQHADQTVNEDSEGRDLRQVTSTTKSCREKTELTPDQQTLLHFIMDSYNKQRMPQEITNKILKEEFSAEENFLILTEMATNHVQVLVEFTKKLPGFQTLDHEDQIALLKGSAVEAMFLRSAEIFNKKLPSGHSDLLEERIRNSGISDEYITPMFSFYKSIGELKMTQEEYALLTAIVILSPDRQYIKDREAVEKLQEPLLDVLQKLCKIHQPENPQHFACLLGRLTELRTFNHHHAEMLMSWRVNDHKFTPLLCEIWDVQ
Experiment: Radioligand Binding Assay (scintillation proximity radioligand displacement)
Conditions: GST-FXR LBD fusion protein on SPA beads, test compound 6×10^−9 M to 2.5×10^−5 M
Method in brief: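 GST-fused human FXR LBD (aa 193-473, E. coli-expressed, 40 nM) was bound to glutathione SPA beads in 50 mM Hepes pH 7.4, 10 mM NaCl, 5 mM MgCl2, 0.01% CHAPS. Displacement of radioligand (e.g. 20 nM) was measured over 6×10^−9 to 2.5×10^−5 M compound, and IC50 calculated.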

IC50 [nM] | Structure (SMILES)
3700 | O=C(O)CCCCCn1c(-c2ccc(Cl)cc2OCC2CCCC2)nc2cc(F)c(F)cc21 [Example 65, 6-[2-(4-Chloro-2-cyclopentylmethoxy-phenyl)-5,6-difluoro-benzoimidazol-1-yl]-hexanoic acid]
30 | c1ccc(-c2nc3ccccc3n2CC2CCCCC2)c(CCc2ccc(-c3nnn[nH]3)cc2)c1 [Example 80, 1-Cyclohexylmethyl-2-(2-{2-[4-(1H-tetrazol-5-yl)-phenyl]-ethyl}-phenyl)-1H-benzoimidazole]
400 | Fc1cc2nc(-c3ccc(Cl)cc3OCc3cccc(-c4nnn[nH]4)c3)n(CC3CCCCC3)c2cc1F [Example 30, 2-{4-Chloro-2-[3-(1H-tetrazol-5-yl)-benzyloxy]-phenyl}-1-cyclohexylmethyl-5,6-difluoro-1H-benzoimidazole]
20 | Fc1cc2nc(-c3ccc(Cl)cc3OCC3CCC3)n(Cc3ccc(-c4nnn[nH]4)cc3F)c2cc1F [Example 92, 2-(4-Chloro-2-cyclobutylmethoxy-phenyl)-5,6-difluoro-1-[2-fluoro-4-(1H-tetrazol-5-yl)-benzyl]-1H-benzoimidazole]
200 | Fc1cc2nc(-c3ccc(Cl)cc3OCC3CCCCC3)n(CC3CCCCC3)c2cc1F [Example 22, 2-(4-Chloro-2-cyclohexylmethoxy-phenyl)-1-cyclohexylmethyl-5,6-difluoro-1H-benzoimidazole]
3800 | Fc1cc2nc(-c3cccnc3OCC3CCCC3)n(Cc3ccccc3)c2cc1F [Example 7, 1-Benzyl-2-(2-cyclopentylmethoxy-pyridin-3-yl)-5,6-difluoro-1H-benzoimidazole]
10 | Fc1cc2nc(-c3ccc(Cl)cc3OCC3CCCC3)n(Cc3ccc(-c4nnn[nH]4)cc3F)c2cc1F [Example 70, 2-(4-Chloro-2-cyclopentylmethoxy-phenyl)-5,6-difluoro-1-[2-fluoro-4-(1H-tetrazol-5-yl)-benzyl]-1H-benzoimidazole]
300 | Fc1cc2nc(-c3ccc(Cl)cc3OCc3ccccc3Cl)n(CC3CCCCC3)c2cc1F [Example 19, 2-[4-Chloro-2-(2-chloro-benzyloxy)-phenyl]-1-cyclohexylmethyl-5,6-difluoro-1H-benzoimidazole]
50 | COc1cc(-c2nnn[nH]2)ccc1COc1cc(Cl)ccc1-c1nc2cc(F)c(F)cc2n1CC1CCCCC1 [Example 35, 2-{4-Chloro-2-[2-methoxy-4-(1H-tetrazol-5-yl)-benzyloxy]-phenyl}-1-cyclohexylmethyl-5,6-difluoro-1H-benzoimidazole]
700 | O=C(O)c1cccc(COc2cc(Cl)ccc2-c2nc3cc(F)c(F)cc3n2CC2CCCCC2)c1 [Example 24, 3-[5-Chloro-2-(1-cyclohexylmethyl-5,6-difluoro-1H-benzoimidazol-2-yl)-phenoxymethyl]-benzoic acid]
20 | Fc1cc2nc(-c3ccc(Cl)cc3OC3CCCCC3)n(Cc3ccc(-c4nnn[nH]4)cc3F)c2cc1F [Example 96, 2-(4-Chloro-2-cyclohexyloxy-phenyl)-5,6-difluoro-1-[2-fluoro-4-(1H-tetrazol-5-yl)-benzyl]-1H-benzoimidazole]
200 | Fc1cc2nc(-c3ccc(Cl)cc3OCC3CCCC3)n(CC3CCCCC3)c2cc1F [Example 20, 2-(4-Chloro-2-cyclopentylmethoxy-phenyl)-1-cyclohexylmethyl-5,6-difluoro-1H-benzoimidazole]
100 | O=C(O)COc1ccc(COc2cc(Cl)ccc2-c2nc3cc(F)c(F)cc3n2CC2CCCCC2)cc1 [Example 25, {4-[5-Chloro-2-(1-cyclohexylmethyl-5,6-difluoro-1H-benzoimidazol-2-yl)-phenoxymethyl]-phenoxy}-acetic acid]
